Results on one molecule are retold here after patent US10314305B2, “Liquid agrochemical compositions comprising a polymeric thickener and an alcohol-containing solvent system, and liquid herbicidal compositions having an alcohol-containing solvent system” (Syngenta Participations AG, priority 2012, dated 2019).

Each structure is given as a SMILES string.

The nature of the data set: Solubility of active ingredients in solvents.

On to `CCc1cc(C)cc(CC)c1-c1c(OC(=O)C(C)(C)C)n2n(c1=O)CCOCC2` [pinoxaden, 8-(2,6-diethyl-4-methylphenyl)-1,2,4,5-tetrahydro-7-oxo-7H-pyrazolo[1,2-d][1,4,5]oxadiazepin-9-yl 2,2-dimethylpropionate], for which, where the note is “1,2-propylene carbonate”, the “Solvent quality of 1,2-propylene carbonate for the active ingredient” value is listed as “only a moderately good solvent”. The “Solvent quality of tetrahydrofurfuryl alcohol (THFA) for the active ingredient” value (THFA) is “excellent solvent”. Besides, the “Solvent quality of benzyl alcohol for the active ingredient” value (benzyl alcohol) was “excellent solvent”.
